Molecules are shown by their SMILES.

Drawing on ChEMBL document CHEMBL5729744, “Granzyme B directed imaging and therapy” (2023), this text covers IC50 for one molecule.

The assay deals with Granzyme B (Homo sapiens, UniProt P10144). The assay can be described thus: Biochemical Assay: Buffer pH7.4: Prepare 1 (M) KH2PO4 and 1 (M) K2HPO4. Titrate 1(M) K2HPO4 with 1 (M) KH2PO4 to obtain pH 7.40. Dilute this buffer 10 fold in Water (30 ml buffer+270 ml of water) to obtain 100 mM phosphate buffer. Adjust pH to 7.40±0.02 using 5(N) HCl or 5(N) NaOH. NADPH Regeneration System (NRS): Prepare a solution containing 13 mM NADP, 33 mM Glucose-6-phosphate, 33 mM MgCl2and 4 U/ml Glucose-6-phosphate dehydrogenase in buffer. Liver Microsome (LM) suspension: Thaw LM vial on ice, then mix 1.0 ml LM (20 mg/ml) with 19 ml buffer [final LM Conc: 1 mg/ml] LM+NRS suspension: Mix 5.0 ml NRS with 20 ml LM suspension [final LM Conc: 0.8 mg/ml] System suitability standard: a synthesized compound having Mol wt 686.2 used as System suitability standard. Dissolve this compound in ice-cold acetonitrile to obtain concentration of 0.1 μg/ml and store at 4° C. Compound Dilution: Compound Stock: 10 mM in DMSO Sub stock (100 μM): 4 μl of 10 mM Compound Stock+398 μl Acetonitrile. Working plate (2 μM): 10 μl of 100 μM Sub stock+490 μl buffer Assay Procedure Incubate all plastic materials including tips at 37° C. overnight. Incubate LM suspension and NRS at 37° C. for 15 min before use. Add 40 μl buffer to the wells of blank plate. Add 40 μl compound (from working plate) to 0, 5, 10, 20, 30 and 60 min plates. Initiate reaction by adding 40 μl of LM+NRS suspension in each plate. […].
Granzyme B, sequence (P10144 whole entry): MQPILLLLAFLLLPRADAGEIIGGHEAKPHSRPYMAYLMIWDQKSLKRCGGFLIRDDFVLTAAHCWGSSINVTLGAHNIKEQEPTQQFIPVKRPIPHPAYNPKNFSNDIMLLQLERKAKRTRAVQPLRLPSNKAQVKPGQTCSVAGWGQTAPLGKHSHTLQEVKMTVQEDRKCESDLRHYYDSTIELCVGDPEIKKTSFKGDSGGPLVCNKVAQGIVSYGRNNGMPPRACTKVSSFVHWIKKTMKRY

As to `O=C(Cc1ccccc1)NCC(=O)N[C@H]1CCc2cccc3c2N(C1=O)[C@H](C(=O)NCc1c[nH]nn1)C3`, the 50% inhibitory concentration (IC50) is greater than 5 µM.
